The source of these data is US11767320B2, “Bicyclic dione compounds as inhibitors of KRAS” (INCYTE CORPORATION, priority 2020, dated 2023).

The target in assay [1] is KRAS G12C (Homo sapiens, UniProt P01116, G12C). Nature of the assay: GDP-GTP exchange assay (fluorescence based guanine nucleotide exchange, bodipy-GDP for GppNHp, SOS1). Format: biochemical. To be noted: bodipy-loaded KRAS G12C, 2 hours pre-incubation with inhibitor, read-out: G12C_exchange (KRAS_G12C exchange assay IC50). The method, then:
The inhibitor potency of the exemplified compounds was determined in a fluorescence based guanine nucleotide exchange assay, which measures the exchange of bodipy-GDP (fluorescently labeled GDP) for GppNHp (Non-hydrolyzable GTP analog) to generate the active state of KRAS in the presence of SOS1 (guanine nucleotide exchange factor). Inhibitors were serially diluted in DMSO and a volume of 0.1 μL was transferred to the wells of a black low volume 384-well plate. 5 μL/well volume of bodipy-loaded KRAS G12C diluted to 5 nM in assay buffer (25 mM Hepes pH 7.5, 50 mM NaCl, 10 mM MgCl2 and 0.01% Brij-35) was added to the plate and pre-incubated with inhibitor for 2 hours at ambient temperature. Appropriate controls (enzyme with no inhibitor or with a G12C inhibitor (AMG-510)) were included on the plate. The exchange was initiated by the addition of a 5 μL/well volume containing 1 mM GppNHp and 300 nM SOS1 in assay buffer. The 10 μL/well reaction concentration of the bodipy-loaded KRAS G12C, GppNHp, and SOS1 were 5-25 nM, 500 uM, and 150 nM, respectively. The reaction plates were incubated at ambient temperature for 2 hours, a time estimated for complete GDP-GTP exchange in the absence of inhibitor. For the KRAS G12D and G12V mutants, similar guanine nucleotide exchange assays were used with 2.5 nM as final concentration for the bodipy loaded KRAS proteins and with 4 hours and 3 hours incubation after adding GppNHp-SOS1 mixture for G12D and G12V, respectively. A cyclic peptide described to selectively bind G12D mutant (Sakamoto et al., BBRC 484.3 (2017), 605-611) or internal compounds with confirmed binding were used as positive controls in the assay plates. Fluorescence intensities were measured on a PheraStar plate reader instrument (BMG Labtech) with excitation at 485 nm and emission at 520 nm.
Either GraphPad prism or XLfit was used to analyze the data. The IC50 values were derived by fitting the data to a four parameter logistic equation producing a sigmoidal dose-response curve with a variable Hill coefficient. Prism equation: Y=Bottom+(Top−Bottom)/(1+10^((Log IC50−X)*Hill slope)); XLfit equation: Y=(A+((B−A)/(1+((X/C)^D)))) where X is the logarithm of inhibitor concentration and Y is the response.

The subject of assay [2] is MIA PaCa-2 (KRAS G12C) cells. Briefly: Cellular pERK HTRF assay. Conditions: Homo sapiens; MIA PaCa-2 cells, 4 hours, phospho-ERK 1/2 HTRF; read-out: G12C_pERK (KRAS_G12C pERK assay IC50). Format: cell-based. The procedure: MIA PaCa-2 (KRAS G12C; ATCC® CRL-1420), A427 (KRAS G12D; ATCC® HTB53), HPAF-II (KRAS G12D; ATCC® CRL-1997) and NCI-H838 (KRAS WT; ATCC® CRL-5844) cells are purchased from ATCC and maintained in RPMI 1640 media supplemented with 10% FBS (Gibco/Life Technologies). The cells are plated at 5000 cells per well (8 uL) into Greiner 384-well low volume, flat-bottom, tissue culture treated white plates and incubated overnight at 37° C. 5% CO2. The next morning, test compound stock solutions are diluted in media at 3× the final concentration, and 4 uL are added to the cells. The plate is mixed by gentle rotation for 30 seconds (250 rpm) at room temperature. The cells are incubated with the KRAS G12C and G12D compounds for 4 hours or 2 hours respectively at 37° C., 5% CO2.
4 uL of 4× lysis buffer with blocking reagent (1:25) (Cisbio) are added to each well and plates are rotated gently (300 rpm) for 30 minutes at room temperature. 4 uL per well of Cisbio anti Phospho-ERK 1/2 d2 is mixed with anti Phospho-ERK 1/2 Cryptate (1:1) are added to each well, mixed by rotation and incubated overnight in the dark at room temperature. Plates are read on the Pherastar plate reader at 665 nm and 620 nm wavelengths. IC50 determination is performed by fitting the curve of inhibitor percent inhibition versus the log of the inhibitor concentration using the GraphPad Prism 7 software.

Chain of KRAS G12C (P01116 1-188 isoform P01116-2 G12C): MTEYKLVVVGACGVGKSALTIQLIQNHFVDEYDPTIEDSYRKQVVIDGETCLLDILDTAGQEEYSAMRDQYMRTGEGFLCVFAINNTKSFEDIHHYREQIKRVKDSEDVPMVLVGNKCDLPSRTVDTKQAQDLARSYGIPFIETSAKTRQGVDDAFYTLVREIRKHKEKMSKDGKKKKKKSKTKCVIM

On to `C=CC(=O)N1CC(F)(Cn2c(=O)c(=O)n(-c3c(C)ccnc3C(C)C)c3nc(-c4ccccc4F)c(Cl)cc32)C1` [Example 18, 1-((1-acryloyl-3-fluoroazetidin-3-yl)methyl)-7-chloro-6-(2-fluorophenyl)-4-(2-isopropyl-4-methylpyridin-3-yl)-1,4-dihydropyrido[2,3-b]pyrazine-2,3-dione], for which the IC50 in assay [1] and in assay [2] was no more than 100 nM in each case.

With `C=CC(=O)N1CC(F)(Cn2c(=O)c(=O)n(-c3c(C)ccnc3C(C)C)c3nc(-c4c(N)cccc4F)c(Cl)cc32)C1` [Example 19, 1-((1-acryloyl-3-fluoroazetidin-3-yl)methyl)-6-(2-amino-6-fluorophenyl)-7-chloro-4-(2-isopropyl-4-methylpyridin-3-yl)-1,4-dihydropyrido[2,3-b]pyrazine-2,3-dione], the IC50 in assay [1] and in assay [2] was no more than 100 nM in each case.

On to `C=CC(=O)N1CC(F)(Cn2c(=O)c(=O)n(-c3c(C)ccnc3C(C)C)c3nc(-c4c(O)cc(C)cc4F)c(Cl)cc32)C1` [Example 20, 1-((1-acryloyl-3-fluoroazetidin-3-yl)methyl)-7-chloro-6-(2-fluoro-6-hydroxy-4-methylphenyl)-4-(2-isopropyl-4-methylpyridin-3-yl)-1,4-dihydropyrido[2,3-b]pyrazine-2,3-dione], for which the IC50 in assay [1] and in assay [2] was no more than 100 nM in each case.

As to `C=CC(=O)N1CC(F)(Cn2c(=O)c(=O)n(-c3c(C)ccnc3C(C)C)c3nc(-c4c(F)ccc(C)c4O)c(Cl)cc32)C1` [Example 21, 1-((1-acryloyl-3-fluoroazetidin-3-yl)methyl)-7-chloro-6-(6-fluoro-2-hydroxy-3-methylphenyl)-4-(2-isopropyl-4-methylpyridin-3-yl)-1,4-dihydropyrido[2,3-b]pyrazine-2,3-dione], the IC50 in assay [1] and in assay [2] was no more than 100 nM each time.

As for `C=CC(=O)N1CC(F)(Cn2c(=O)c(=O)n(-c3c(C)ccnc3C(C)C)c3nc(-c4c(F)ccc(F)c4O)c(Cl)cc32)C1` [Example 22, 1-((1-acryloyl-3-fluoroazetidin-3-yl)methyl)-7-chloro-6-(3,6-difluoro-2-hydroxyphenyl)-4-(2-isopropyl-4-methylpyridin-3-yl)-1,4-dihydropyrido[2,3-b]pyrazine-2,3-dione], the IC50 in assay [1] and in assay [2] was no more than 100 nM in each case.

For the compound `C=CC(=O)N1CC(F)(Cn2c(=O)c(=O)n(-c3c(C)ccnc3C(C)C)c3nc(-c4c(O)ccc(F)c4F)c(Cl)cc32)C1` [Example 23, 1-((1-acryloyl-3-fluoroazetidin-3-yl)methyl)-7-chloro-6-(2,3-difluoro-6-hydroxyphenyl)-4-(2-isopropyl-4-methylpyridin-3-yl)-1,4-dihydropyrido[2,3-b]pyrazine-2,3-dione], the IC50 in assay [1] and in assay [2] was no more than 100 nM in each case.

Regarding `C=CC(=O)N1CC(F)(Cn2c(=O)c(=O)n(-c3c(C)ccnc3C(C)C)c3nc(-c4c(F)ccc(Cl)c4O)c(Cl)cc32)C1` [Example 24, 1-((1-acryloyl-3-fluoroazetidin-3-yl)methyl)-7-chloro-6-(3-chloro-6-fluoro-2-hydroxyphenyl)-4-(2-isopropyl-4-methylpyridin-3-yl)-1,4-dihydropyrido[2,3-b]pyrazine-2,3-dione], the IC50 in assay [1] and in assay [2] was no more than 100 nM each time.

As for `C=CC(=O)N1CC(F)(Cn2c(=O)c(=O)n(-c3c(C)ccnc3C(C)C)c3nc(-c4c(O)cccc4C(F)(F)F)c(Cl)cc32)C1` [Example 25, 1-((1-acryloyl-3-fluoroazetidin-3-yl)methyl)-7-chloro-6-(2-hydroxy-6-(trifluoromethyl)phenyl)-4-(2-isopropyl-4-methylpyridin-3-yl)-1,4-dihydropyrido[2,3-b]pyrazine-2,3-dione], the half-inhibitory concentration (IC50) in assay [1] and in assay [2] was no more than 100 nM each time.

For the compound `C=CC(=O)N1CC(F)(Cn2c(=O)c(=O)n(-c3c(C)ccnc3C(C)C)c3nc(-c4cccc5c(C)n[nH]c45)c(Cl)cc32)C1` [Example 27, 1-((1-acryloyl-3-fluoroazetidin-3-yl)methyl)-7-chloro-4-(2-isopropyl-4-methylpyridin-3-yl)-6-(3-methyl-1H-indazol-7-yl)-1,4-dihydropyrido[2,3-b]pyrazine-2,3-dione], the half-inhibitory concentration (IC50) in assay [1] and in assay [2] was 100 to 1000 nM throughout.

`C=CC(=O)N1CC(F)(Cn2c(=O)c(=O)n(-c3c(C)ccnc3C(C)C)c3nc(-c4c(C)ccc5cn[nH]c45)c(Cl)cc32)C1` [Example 28, 1-((1-acryloyl-3-fluoroazetidin-3-yl)methyl)-7-chloro-4-(2-isopropyl-4-methylpyridin-3-yl)-6-(6-methyl-1H-indazol-7-yl)-1,4-dihydropyrido[2,3-b]pyrazine-2,3-dione]: the 50% inhibitory concentration (IC50) in assay [1] and in assay [2] was no more than 100 nM in each case.

For `C=CC(=O)N1CC(F)(Cn2c(=O)c(=O)n(-c3c(C)ccnc3C(C)C)c3nc(-c4ccc(C)cc4F)c(Cl)cc32)C1` [Example 33, 1-((1-acryloyl-3-fluoroazetidin-3-yl)methyl)-7-chloro-6-(2-fluoro-4-methylphenyl)-4-(2-isopropyl-4-methylpyridin-3-yl)-1,4-dihydropyrido[2,3-b]pyrazine-2,3-dione], the IC50 in assay [1] and in assay [2] was no more than 100 nM throughout.

In the case of `C=CC(=O)N1CC(F)(Cn2c(=O)c(=O)n(-c3c(C)ccnc3C(C)C)c3nc(-c4cccc(C)c4F)c(Cl)cc32)C1` [Example 34, 1-((1-acryloyl-3-fluoroazetidin-3-yl)methyl)-7-chloro-6-(2-fluoro-3-methylphenyl)-4-(2-isopropyl-4-methylpyridin-3-yl)-1,4-dihydropyrido[2,3-b]pyrazine-2,3-dione], the IC50 in assay [1] and in assay [2] was no more than 100 nM in each case.

Take `C=CC(=O)N1CC(F)(Cn2c(=O)c(=O)n(-c3c(C)ccnc3C(C)C)c3nc(-c4cccc(Cl)c4Cl)c(Cl)cc32)C1` [Example 35, 1-((1-acryloyl-3-fluoroazetidin-3-yl)methyl)-7-chloro-6-(2,3-dichlorophenyl)-4-(2-isopropyl-4-methylpyridin-3-yl)-1,4-dihydropyrido[2,3-b]pyrazine-2,3-dione]: the IC50 in assay [1] and in assay [2] was no more than 100 nM in each case.

As for `C=CC(=O)N1CC(F)(Cn2c(=O)c(=O)n(-c3c(C)ccnc3C(C)C)c3nc(-c4ccccc4Cl)c(Cl)cc32)C1` [Example 36, 1-((1-acryloyl-3-fluoroazetidin-3-yl)methyl)-7-chloro-6-(2-chlorophenyl)-4-(2-isopropyl-4-methylpyridin-3-yl)-1,4-dihydropyrido[2,3-b]pyrazine-2,3-dione], the 50% inhibitory concentration (IC50) in assay [1] and in assay [2] was no more than 100 nM in each case.

`C=CC(=O)N1CC(F)(Cn2c(=O)c(=O)n(-c3c(C)ccnc3C(C)C)c3nc(-c4ccccc4C(F)(F)F)c(Cl)cc32)C1` [Example 37, 1-((1-acryloyl-3-fluoroazetidin-3-yl)methyl)-7-chloro-4-(2-isopropyl-4-methylpyridin-3-yl)-6-(2-(trifluoromethyl)phenyl)-1,4-dihydropyrido[2,3-b]pyrazine-2,3-dione]: the half-maximal inhibitory concentration (IC50) in assay [1] is no more than 100 nM; in assay [2], 100 to 1000 nM.
